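Five concentrations, 48 hours, 96-well plates. GI50 marks 50% less growth. TGI: concentration producing complete growth inhibition.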

Some test systems named below: UACC-62 melanoma; BT-549 breast; NCI/ADR-RES ovarian; CCRF-CEM leukemia; HS 578T breast; PC-3 prostate; RXF 393 renal.
Holding throughout (assay): inhibition of tumour cell growth, NCI panel, 48 h

As to `O=C1CC(c2ccc3c(c2)OCO3)Nc2cc3c(cc21)OCO3` (configuration not stated), the GI50 was 0.673 µM with UACC-62 melanoma; 3.24 µM in the assay with BT-549 breast; 0.372 µM with NCI/ADR-RES ovarian; 0.363 µM with CCRF-CEM leukemia; 0.512 µM in the assay with HS 578T breast; 0.464 µM in the assay on PC-3 prostate. Moreover, in the assay on RXF 393 renal, the GI50 was 0.343 µM. Further, the TGI was more than 100 µM in the assay with UACC-62 melanoma; more than 100 µM with BT-549 breast; 83.4 µM in the assay with NCI/ADR-RES ovarian; more than 100 µM with CCRF-CEM leukemia; 93.6 µM with HS 578T breast; more than 100 µM in the assay with PC-3 prostate. For the same compound, the TGI in the assay with RXF 393 renal was 4.44 µM.
Consider `CC(=O)Nc1ccccc1C=C1c2ccccc2-c2ccccc21`, for which the TGI in the assay with UACC-62 melanoma is more than 100 µM; in the assay with BT-549 breast, 98.3 µM; with NCI/ADR-RES ovarian, 66.7 µM; with CCRF-CEM leukemia it was more than 100 µM; in the assay on HS 578T breast it was more than 100 µM; in the assay on PC-3 prostate, more than 100 µM. For the same compound, the TGI in the assay with RXF 393 renal was 42.3 µM.
As to `C/C(=C\c1ccn(-c2ccc(N)c(F)c2)n1)[C@@H]1C[C@@H]2O[C@]2(C)CCC[C@H](C)[C@H](O)[C@@H](C)C(=O)C(C)(C)[C@@H](O)CC(=O)O1`, the GI50 is 0.0517 µM in the assay with UACC-62 melanoma; 0.041 µM with BT-549 breast; 0.0943 µM in the assay with NCI/ADR-RES ovarian; 0.0114 µM with CCRF-CEM leukemia; 0.0108 µM in the assay on HS 578T breast; 0.0139 µM in the assay with PC-3 prostate. In the assay with RXF 393 renal, the GI50 is 0.0119 µM. Further, the TGI is more than 50 µM in the assay with UACC-62 melanoma; 25.4 µM in the assay with BT-549 breast; more than 50 µM with NCI/ADR-RES ovarian; more than 50 µM with CCRF-CEM leukemia; more than 50 µM in the assay with PC-3 prostate; 0.109 µM in the assay with RXF 393 renal.
For the compound `O=C(/C=C/c1cccs1)c1ccc(Nc2nc(Nc3ccc(F)cc3)nc(Nc3ccc(F)cc3)n2)cc1`, the GI50 was more than 100 µM with UACC-62 melanoma; 16.7 µM in the assay on BT-549 breast; 31.3 µM with NCI/ADR-RES ovarian; 40.9 µM in the assay on CCRF-CEM leukemia; 23.8 µM in the assay with HS 578T breast; 19 µM with PC-3 prostate. The GI50 in the assay on RXF 393 renal is 23.3 µM. The TGI in the assay with UACC-62 melanoma was more than 100 µM; in the assay with BT-549 breast, 32.4 µM; in the assay on NCI/ADR-RES ovarian it was more than 100 µM; in the assay with CCRF-CEM leukemia, more than 100 µM; with HS 578T breast, 74.3 µM; in the assay with PC-3 prostate it was 44.4 µM. In the assay with RXF 393 renal, this compound showed a TGI of 75.1 µM.
Take `COC1(O)C(=O)c2ccccc2OC1(OC)c1ccccc1` (configuration not stated): the TGI with UACC-62 melanoma, in the assay on BT-549 breast, with NCI/ADR-RES ovarian, in the assay with CCRF-CEM leukemia, in the assay on HS 578T breast and with PC-3 prostate was more than 100 µM throughout. In the assay with RXF 393 renal, the TGI is more than 100 µM.
With `COc1cc2c3c(n(CCCNCC(OC)OC)c(=O)c2cc1OC)-c1cc2c(cc1C3=O)OCO2`, the GI50 in the assay on UACC-62 melanoma was 1.63 µM; in the assay on BT-549 breast it was 4.06 µM; in the assay with NCI/ADR-RES ovarian it was 0.338 µM; in the assay on CCRF-CEM leukemia it was less than 0.01 µM; with HS 578T breast, 10.4 µM; in the assay on PC-3 prostate it was 2.35 µM. Also, in the assay with RXF 393 renal, the GI50 was 3.84 µM. Also, the TGI is 22.6 µM in the assay with UACC-62 melanoma; more than 29.6 µM in the assay with BT-549 breast; 29.3 µM in the assay on NCI/ADR-RES ovarian; 1.8 µM in the assay on CCRF-CEM leukemia; more than 29.3 µM in the assay on HS 578T breast; 40.6 µM in the assay with PC-3 prostate. This compound gave a TGI with RXF 393 renal of 21.6 µM.
With `O=C1/C(=C/c2ccc([N+](=O)[O-])o2)Oc2ccc(Br)cc21`, the GI50 in the assay on UACC-62 melanoma was 1.84 µM; with BT-549 breast, 1.87 µM; with NCI/ADR-RES ovarian it was 10.9 µM; with CCRF-CEM leukemia, 2 µM; in the assay on HS 578T breast, 3.91 µM; with PC-3 prostate, 3.52 µM. Besides, the GI50 in the assay with RXF 393 renal was 1.68 µM. Besides, the TGI came out at 4.09 µM in the assay on UACC-62 melanoma; 3.5 µM with BT-549 breast; 42 µM with NCI/ADR-RES ovarian; 4.97 µM with CCRF-CEM leukemia; 26.9 µM in the assay with HS 578T breast; 15.2 µM in the assay on PC-3 prostate. The compound also returned a TGI in the assay on RXF 393 renal of 3.21 µM.
In the case of `Cc1ccc2c(c1C)-c1c(ccc(C)c1C)C(=O)C2=O`, the TGI in the assay with UACC-62 melanoma stood at 1.68 µM; in the assay with BT-549 breast it was 1.06 µM; with NCI/ADR-RES ovarian, 0.384 µM; with CCRF-CEM leukemia it was 0.991 µM; in the assay on HS 578T breast, 5.76 µM; with PC-3 prostate, 7.3 µM. Also, in the assay with RXF 393 renal, the TGI was found to be 2.57 µM.
For the compound `CC(C)[C@@]12C[C@@H](OC(=O)COC(=O)/C=C/c3ccccc3)[C@@](C)(O1)[C@@H]1CC[C@@H](C)[C@H]1[C@@H]2OC(=O)/C=C/c1ccccc1`, the GI50 with UACC-62 melanoma was more than 100 µM; with BT-549 breast, 0.508 µM; with NCI/ADR-RES ovarian, 0.569 µM; with CCRF-CEM leukemia, more than 100 µM; with HS 578T breast, 0.0187 µM; in the assay on PC-3 prostate, more than 100 µM. Moreover, in the assay with RXF 393 renal, the GI50 was 0.618 µM. Moreover, the TGI is more than 100 µM with UACC-62 melanoma; more than 100 µM in the assay on BT-549 breast; more than 100 µM with NCI/ADR-RES ovarian; more than 100 µM in the assay with CCRF-CEM leukemia; 0.0774 µM with HS 578T breast; more than 100 µM with PC-3 prostate. The same compound came in with a TGI in the assay with RXF 393 renal of more than 100 µM.
With `Cc1ccc(/C=C2/SC(Nc3nc(-c4nc(NC5=NC(=O)/C(=C\c6ccc(C)cc6)S5)sc4C)c(C)s3)=NC2=O)cc1`, the GI50 in the assay with UACC-62 melanoma is 0.0759 µM; with BT-549 breast, 1.21 µM; with NCI/ADR-RES ovarian, 0.435 µM; in the assay on CCRF-CEM leukemia, 2.44 µM; with HS 578T breast, 0.0926 µM; in the assay on PC-3 prostate, 0.757 µM. Further, the GI50 in the assay with RXF 393 renal was 0.282 µM. Moreover, the TGI in the assay on UACC-62 melanoma is 1.71 µM; in the assay with BT-549 breast, 31.9 µM; with NCI/ADR-RES ovarian, more than 12.7 µM; with CCRF-CEM leukemia, more than 50 µM; in the assay on HS 578T breast, 1.14 µM; with PC-3 prostate, more than 50 µM. For the same compound, the TGI with RXF 393 renal is 3.65 µM.
Regarding `O=C(CCCCCCSc1nc(-c2ccccc2)cc(-c2ccccc2)n1)NO`, the GI50 is 1.35 µM in the assay with UACC-62 melanoma; 3.16 µM in the assay on BT-549 breast; 0.699 µM in the assay with NCI/ADR-RES ovarian; 0.535 µM with CCRF-CEM leukemia; 1.56 µM in the assay with HS 578T breast; 2.24 µM with PC-3 prostate. Also, in the assay on RXF 393 renal, the GI50 was 1.72 µM. The TGI is 3.85 µM in the assay on UACC-62 melanoma; 18.4 µM in the assay with BT-549 breast; 6.15 µM with NCI/ADR-RES ovarian; 5.36 µM in the assay with CCRF-CEM leukemia; 14.5 µM with HS 578T breast; 13.4 µM in the assay with PC-3 prostate. In addition, the TGI in the assay on RXF 393 renal stood at 4.42 µM.

The values are drawn from PubChem BioAssay (NCI).
